Assay results taken from patent US8609690B2, “Aryl- and heteroarylcarbonyl derivatives of substituted nortropanes, medicaments containing such compounds and their use” (Boehringer Ingelheim International GmbH, priority 2008, dated 2013).

Molecular target: T1, 11β-HSD 1 (Homo sapiens, UniProt P28845)
T1 construct: detecting cortisol generated from cortisterone by human liver microsomes; from tissue; host or cells: human liver microsomes
Assay: In vitro inhibition of 11β-HSD 1, HTRF detection of cortisol generated by human liver microsomes
Type: biochemical
Conditions: 1 μM test compound, 100% indicates no inhibition, zero or below zero indicates complete inhibition (relative to carbenoxolone)
Procedure, shortened: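 Human liver microsomes with test compound were incubated 1 h at 37 °C in Tris buffer, pH 6.0, with 200 μM NADPH and 80 nM cortisone. Cortisol formed was detected by competitive HTRF immunoassay (665/615 nm ratio) and calibrated against a cortisol standard curve. Values are activities at 1 μM compound relative to carbenoxolone, where 100% indicates no inhibition.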

T1 sequence (P28845 whole entry): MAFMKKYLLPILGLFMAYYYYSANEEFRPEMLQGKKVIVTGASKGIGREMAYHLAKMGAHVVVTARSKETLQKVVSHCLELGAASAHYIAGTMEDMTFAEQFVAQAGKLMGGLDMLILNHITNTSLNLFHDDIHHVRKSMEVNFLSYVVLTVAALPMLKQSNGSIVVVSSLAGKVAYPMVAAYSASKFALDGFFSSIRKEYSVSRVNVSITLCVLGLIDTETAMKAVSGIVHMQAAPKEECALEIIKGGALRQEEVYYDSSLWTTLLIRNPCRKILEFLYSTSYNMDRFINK

| SMILES | Inhibitory activity on 11β-HSD 1, % CTL [% CTL] |
| --- | --- |
| O=C(c1ccc2c(c1)OCCO2)N1C2CCC1CC(c1ccc(F)c(Cl)c1)C2 (stereo not drawn) [Example 148, [3-(3-Chloro-4-fluoro-phenyl)-8-aza-bicyclo[3.2.1]oct-8-yl]-(2,3-dihydro-benzo[1,4]dioxin-6-yl)-methanone] | −48 |
| NC(=O)c1cccc(C2CC3CCC(C2)N3C(=O)c2ccc3c(c2)OCCO3)c1 (stereo not drawn) [Example 149, 3-[8-(2,3-Dihydro-benzo[1,4]dioxine-6-carbonyl)-8-aza-bicyclo[3.2.1]oct-3-yl]-benzamide] | 30 |
| O=C(c1ccc2c(c1)OCCO2)N1C2CCC1CC(c1cccc(-c3ccccc3)c1)C2 (stereo not drawn) [Example 150, (3-Biphenyl-3-yl-8-aza-bicyclo[3.2.1]oct-8-yl)-(2,3-dihydro-benzo[1,4]dioxin-6-yl)-methanone] | 62 |
| O=C(c1ccc2c(c1)OCCO2)N1C2CCC1CC(c1ccc(Cl)cc1)C2 (stereo not drawn) [Example 151, [3-(4-Chloro-phenyl)-8-aza-bicyclo[3.2.1]oct-8-yl]-(2,3-dihydro-benzo[1,4]dioxin-6-yl)-methanone] | −44 |
| O=C(c1ccc2c(c1)OCCO2)N1[C@@H]2CC[C@H]1C[C@@H](c1ccc(Oc3ccccc3)cc1)C2 [Example 152, endo-(2,3-Dihydro-benzo[1 ,4]dioxin-6-yl)-[3-(4-phenoxy-phenyl)-8-aza-bicyclo[3.2.1]oct-8-yl]-methanone] | 5 |
| O=C(c1ccc2c(c1)OCCO2)N1[C@@H]2CC[C@H]1C[C@@H](c1cccnc1)C2 [Example 153, endo-(2,3-Dihydro-benzo[1,4]dioxin-6-yl)-(3-pyridin-3-yl-8-aza-bicyclo[3.2.1]oct-8-yl)-methanone] | −4 |
| COC(=O)c1ccc([C@H]2C[C@H]3CC[C@@H](C2)N3C(=O)c2ccc3c(c2)OCCO3)cc1 [Example 154] | 59 |
| O=C(c1ccc2c(c1)OCCO2)N1[C@@H]2CC[C@H]1C[C@@H](c1ccc(Br)cc1)C2 [Example 155, endo-[3-(4-Bromo-phenyl)-8-aza-icyclo[3.2.1]oct-8-yl]-(2,3-dihydro-benzo[1,4]dioxin-6-yl)-methanone] | −17 |
| COc1ccccc1[C@H]1C[C@H]2CC[C@@H](C1)N2C(=O)c1ccc2c(c1)OCCO2 [Example 156, endo-(2,3-Dihydro-benzo[1,4]dioxin-6-yl)-[3-(2-methoxy-phenyl)-8-aza-bicyclo[3.2.1]oct-8-yl]-methanone] | −13 |
| O=C(c1ccc2c(c1)OCCO2)N1[C@@H]2CC[C@H]1C[C@@H](c1ccc3ccccc3c1)C2 [Example 157, endo-(2,3-Dihydro-benzo[1,4]dioxin-6-yl)-(3-naphthalen-2-yl-8-aza-bicyclo[3.2.1]oct-8-yl)-methanone] | 38 |
| O=C(O)c1ccc([C@H]2C[C@H]3CC[C@@H](C2)N3C(=O)c2ccc3c(c2)OCCO3)cc1 [Example 158, endo-4-[8-(2,3-Dihydro-enzo[1,4]dioxine-6-carbonyl)-8-aza-bicyclo[3.2.1]oct-3-yl]-benzoic acid] | 86 |
| O=C(c1ccc2c(c1)OCCO2)N1[C@@H]2CC[C@H]1C[C@@H](c1ccccc1O)C2 [Example 159, endo-(2,3-Dihydro-benzo[1,4]dioxin-6-yl)-[3-(2-hydroxy-phenyl)-8-aza-bicyclo[3.2.1]oct-8-yl]-methanone] | −55 |
| O=C(c1ccc2c(c1)OCCO2)N1[C@@H]2CC[C@H]1C[C@@H](c1ccc(F)cc1F)C2 [Example 160, endo-[3-(2,4-Difluoro-phenyl)-8-aza-bicyclo[3.2.1]oct-8-yl]-(2,3-dihydro-benzo[1,4]dioxin-6-yl)-methanone] | −26 |
| O=C(c1ccc2c(c1)OCCO2)N1[C@@H]2CC[C@H]1C[C@@H](c1c(F)cccc1F)C2 [Example 161, endo-[3-(2,6-Difluoro-phenyl)-8-aza-bicyclo[3.2.1]oct-8-yl]-(2,3-dihydro-benzo[1,4]dioxin-6-yl)-methanone] | −30 |
| Cc1cc(C(F)F)n2nc(C(=O)N3[C@@H]4CC[C@H]3C[C@@H](c3ccc(F)cc3)C4)nc2n1 [Example 162, endo-(7-Difluoromethyl-5-methyl-[1,2,4]triazolo[1,5-a]pyrimidin-2-yl)-[3-(4-fluoro-phenyl)-8-aza-bicyclo[3.2.1]oct-8-yl]-methanone] | 96 |
| O=C(c1cc(Cl)c(O)c(Cl)c1)N1[C@@H]2CC[C@H]1C[C@@H](c1ccc(F)cc1)C2 [Example 163, endo-(3,5-Dichloro-4-hydroxy-phenyl)-[3-(4-fluoro-phenyl)-8-aza-bicyclo[3.2.1]oct-8-yl]-methanone] | −7 |
| Cc1cc(C(=O)N2[C@@H]3CC[C@H]2C[C@@H](c2ccc(F)cc2)C3)cc(C)c1O [Example 164, endo-[3-(4-Fluoro-phenyl)-8-aza-bicyclo[3.2.1]oct-8-yl]-(4-hydroxy-3,5-dimethyl-phenyl)-methanone] | −29 |

| SMILES | Inhibitory activity on 11β-HSD 1, % CTL [% CTL] |
| --- | --- |
| COc1ccc(C(=O)N2[C@@H]3CC[C@H]2C[C@@H](c2ccc(F)cc2)C3)cc1Cl [Example 165, endo-(3-Chloro-4-methoxy-phenyl)-[3-(4-fluoro-phenyl)-8-aza-bicyclo[3.2.1]oct-8-yl]-methanone] | 2 |
| Cc1cc(C(=O)N2[C@@H]3CC[C@H]2C[C@@H](c2ccc(F)cc2)C3)ccc1O [Example 166, endo-[3-(4-Fluoro-phenyl)-8-aza-bicyclo[3.2.1]oct-8-yl]-(4-hydroxy-3-methyl-phenyl)-methanone] | −33 |
| O=C(c1ccc(O)c(Cl)c1)N1[C@@H]2CC[C@H]1C[C@@H](c1ccc(F)cc1)C2 [Example 167, endo-(3-Chloro-4-hydroxy-phenyl)-[3-(4-fluoro-phenyl)-8-aza-bicyclo[3.2.1]oct-8-yl]-methanone] | −22 |
| COc1c(F)cc(C(=O)N2[C@@H]3CC[C@H]2C[C@@H](c2ccc(F)cc2)C3)cc1F [Example 168, endo-(3,5-Difluoro-4-methoxy-phenyl)-[3-(4-fluoro-phenyl)-8-aza-bicyclo[3.2.1]oct-8-yl]-methanone] | 6 |
| O=C(c1ccc(O)c(F)c1)N1[C@@H]2CC[C@H]1C[C@@H](c1ccc(F)cc1)C2 [Example 169, endo-(3-Fluoro-4-hydroxy-phenyl)-[3-(4-fluoro-phenyl)-8-aza-bicyclo[3.2.1]oct-8-yl]-methanone] | −25 |
| COc1ccc(C(=O)N2[C@@H]3CC[C@H]2C[C@@H](c2ccc(F)cc2)C3)cc1C [Example 170, endo-[3-(4-Fluoro-phenyl)-8-aza-bicyclo[3.2.1]oct-8-yl]-(4-methoxy-3-methyl-phenyl)-methanone] | −34 |
| COc1cc(C(=O)N2[C@@H]3CC[C@H]2C[C@@H](c2ccc(F)cc2)C3)ccc1O [Example 171, endo-[3-(4-Fluoro-phenyl)-8-aza-bicyclo[3.2.1]oct-8-yl]-(4-hydroxy-3-methoxy-phenyl)-methanone] | −26 |
| O=C(c1cc(F)c(O)c(F)c1)N1[C@@H]2CC[C@H]1C[C@@H](c1ccc(F)cc1)C2 [Example 172, endo-(3,5-Difluoro-4-hydroxy-phenyl)-[3-(4-fluoro-phenyl)-8-aza-bicyclo[3.2.1]oct-8-yl]-methanone] | 0 |
| Nc1ccc(C(=O)N2[C@@H]3CC[C@H]2C[C@@H](c2ccc(F)cc2)C3)cc1Cl [Example 173, endo-(4-Amino-3-chloro-phenyl)-[3-(4-fluoro-phenyl)-8-aza-bicyclo[3.2.1]oct-8-yl]-methanone] | −46 |
| O=C(c1ccc(O)c(C(F)(F)F)c1)N1[C@@H]2CC[C@H]1C[C@@H](c1ccc(F)cc1)C2 [Example 174, endo-[3-(4-Fluoro-phenyl)-8-aza-bicyclo[3.2.1]oct-8-yl]-(4-hydroxy-3-trifluoromethyl-phenyl)-methanone] | −40 |
| COc1cc(C(=O)N2[C@@H]3CC[C@H]2C[C@@H](c2ccc(F)cc2)C3)cc(Cl)c1O [Example 175, endo-(3-Chloro-4-hydroxy-5-methoxy-phenyl)-[3-(4-fluoro-phenyl)-8-aza-bicyclo[3.2.1]oct-8-yl]-methanone] | −37 |
| Nc1ccc(C(=O)N2[C@@H]3CC[C@H]2C[C@@H](c2ccc(F)cc2)C3)cc1F [Example 176, endo-(4-Amino-3-fluoro-phenyl)-[3-(4-fluoro-phenyl)-8-aza-bicyclo[3.2.1]oct-8-yl]-methanone] | −42 |
| Nc1ccc(C(=O)N2[C@@H]3CC[C@H]2C[C@@H](c2ccc(F)cc2)C3)cc1 [Example 177, endo-(4-Amino-phenyl)-[3-(4-fluoro-phenyl)-8-aza-bicyclo[3.2.1]oct-8-yl]-methanone] | −44 |
| Nc1c(Cl)cc(C(=O)N2[C@@H]3CC[C@H]2C[C@@H](c2ccc(F)cc2)C3)cc1Cl [Example 178, endo-(4-Amino-3,5-dichloro-phenyl)-[3-(4-fluoro-phenyl)-8-aza-bicyclo[3.2.1]oct-8-yl]-methanone] | −22 |
| O=C(c1cc(F)c(O)c(Cl)c1)N1[C@@H]2CC[C@H]1C[C@@H](c1ccc(F)cc1)C2 [Example 179, endo-(3-Chloro-5-fluoro-4-hydroxy-phenyl)-[3-(4-fluoro-phenyl)-8-aza-bicyclo[3.2.1]oct-8-yl]-methanone] | −11 |
| O=C(c1ccc2[nH]ncc2c1)N1[C@@H]2CC[C@H]1C[C@@H](c1ccc(F)cc1)C2 [Example 180, endo-[3-(4-Fluoro-phenyl)-8-aza-bicyclo[3.2.1]oct-8-yl]-(1H-indazol-5-yl)-methanone] | −41 |
